{"source": "patent US11840686B2", "about": "“Modulation of prekallikrein (PKK) expression” (Ionis Pharmaceuticals, Inc., priority 2013, dated 2023)", "note": "Strand notation (5' to 3'): a small letter for the sugar, then the base; units joined by * are phosphorothioate-linked, units joined directly phosphodiester-linked; [ ] holds rarer units or linkages, { } end groups; capitals alone tell only the bases. e = 2'-O-(2-methoxyethyl) (MOE); [5mC] = 5-methylcytosine; d = 2'-deoxy (DNA)", "data": [{"tested_on": "human PKK mRNA", "assay": "Antisense inhibition of human PKK mRNA in HepaRG cells, 3,000 nM (Example 1)", "assay_type": "cell-based", "details": "Table 4; HepaRG cells, electroporation with 3,000 nM antisense oligonucleotide, approx. 24 hours; PKK mRNA by RT-PCR (RTS3454), relative to untreated control cells", "method_in_brief": "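HepaRG cells, 20,000 per well, were electroporated with 3,000 nM 5-10-5 MOE gapmer (phosphorothioate, 5-methylcytosine). After about 24 h, PKK mRNA was measured by qRT-PCR with primer probe set RTS3454 and normalised to RIBOGREEN total RNA. Values are percent inhibition versus untreated cells.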", "units": {"% inhibition": "%"}, "values": [{"substance": "531175 (antisense eT*eA*e[5mC]*eT*e[5mC]*dA*dG*dG*dA*dA*dA*dT*dT*dA*dG*eA*eA*eT*eA*eT) [compound 531175]", "% inhibition": 25}, {"substance": "531176 (antisense eT*eT*eA*eT*eG*dA*dA*dA*d[5mC]*d[5mC]*dT*d[5mC]*dT*dT*dG*eA*eT*eT*eT*eG) [compound 531176]", "% inhibition": 0}, {"substance": "531177 (antisense eT*eT*e[5mC]*eT*eT*dG*dT*dA*dA*dA*dT*dG*dT*d[5mC]*dT*eG*eA*eA*eT*eT) [compound 531177]", "% inhibition": 61}, {"substance": "531178 (antisense eA*e[5mC]*e[5mC]*eA*e[5mC]*dA*dG*dG*dA*dA*dA*d[5mC]*dT*dG*dT*eA*eG*e[5mC]*eA*eA) [compound 531178]", "% inhibition": 72}, {"substance": "531179 (antisense eG*eA*eT*eT*eG*dG*dA*d[5mC]*d[5mC]*d[5mC]*dA*dG*dA*d[5mC]*dA*e[5mC]*eT*eA*eT*eA) [compound 531179]", "% inhibition": 57}, {"substance": "531180 (antisense e[5mC]*e[5mC]*eT*e[5mC]*eT*dT*dA*dA*dG*dT*d[5mC]*dA*d[5mC]*d[5mC]*dA*eT*eA*eG*eA*e[5mC]) [compound 531180]", "% inhibition": 45}, {"substance": "531181 (antisense eG*eG*eT*eT*eG*dA*dG*dG*dG*dA*d[5mC]*dA*dG*dA*d[5mC]*eA*e[5mC]*eA*eG*eG) [compound 531181]", "% inhibition": 36}, {"substance": "531182 (antisense eA*eT*eA*eA*eT*d[5mC]*dA*dT*dG*dA*dT*dT*dT*dA*dT*eT*eT*eT*eG*e[5mC]) [compound 531182]", "% inhibition": 34}, {"substance": "531183 (antisense e[5mC]*eA*eT*eA*eA*dG*dA*dA*dT*dG*dT*dG*d[5mC]*dA*d[5mC]*eA*e[5mC]*eA*eA*eA) [compound 531183]", "% inhibition": 39}, {"substance": "531184 (antisense eA*e[5mC]*eT*e[5mC]*eT*dT*dA*dT*dT*dA*dG*d[5mC]*dT*dG*dG*eT*eA*eG*eA*eA) [compound 531184]", "% inhibition": 74}, {"substance": "531185 (antisense eG*eG*eA*e[5mC]*e[5mC]*dA*dA*dA*dA*d[5mC]*dT*dG*dA*dG*dA*eG*eG*e[5mC]*eA*eG) [compound 531185]", "% inhibition": 63}, {"substance": "531186 (e[5mC]*e[5mC]*eA*eT*eT*dA*d[5mC]*dT*d[5mC]*dT*d[5mC]*dA*dA*dG*d[5mC]*eT*e[5mC]*e[5mC]*eA*e[5mC]; antisense) [compound 531186]", "% inhibition": 75}, {"substance": "531187 (eA*eT*e[5mC]*eT*eA*dT*dT*dG*dG*dT*dT*d[5mC]*dA*dG*dG*eA*eG*e[5mC]*e[5mC]*eA; antisense) [compound 531187]", "% inhibition": 72}, {"substance": "531188 (eG*eT*eT*eA*eA*dA*dA*d[5mC]*dA*dA*d[5mC]*dT*dA*dG*dA*eA*eG*e[5mC]*e[5mC]*eA; antisense) [compound 531188]", "% inhibition": 67}, {"substance": "531189 (eA*eG*eG*eT*eG*dT*dT*d[5mC]*dT*dT*dG*d[5mC]*dT*dT*dA*eT*e[5mC]*e[5mC]*eT*e[5mC]; antisense) [compound 531189]", "% inhibition": 63}, {"substance": "531190 (eG*e[5mC]*eA*eG*eT*d[5mC]*dA*d[5mC]*dT*d[5mC]*d[5mC]*dT*d[5mC]*dT*dT*e[5mC]*e[5mC]*eA*eG*e[5mC]; antisense) [compound 531190]", "% inhibition": 59}, {"substance": "531191 (eA*eA*eG*eT*eG*dT*dA*dT*dT*dG*d[5mC]*d[5mC]*dT*dA*dG*eA*eT*eT*eT*e[5mC]; antisense) [compound 531191]", "% inhibition": 37}, {"substance": "531192 (eG*eA*eG*eT*eG*d[5mC]*d[5mC]*dA*dT*d[5mC]*dT*dT*d[5mC]*dT*d[5mC]*eT*eG*e[5mC]*eA*e[5mC]; antisense) [compound 531192]", "% inhibition": 61}, {"substance": "531193 (eT*eT*eA*eT*eT*d[5mC]*d[5mC]*d[5mC]*dA*dG*d[5mC]*dT*d[5mC]*dT*dA*eA*eA*eA*eT*eA; antisense) [compound 531193]", "% inhibition": 23}, {"substance": "531194 (e[5mC]*eT*e[5mC]*eA*e[5mC]*dA*dA*dT*dT*d[5mC]*dT*dG*dT*dA*dA*eG*eG*eG*eA*eA; antisense) [compound 531194]", "% inhibition": 64}, {"substance": "531195 (eA*eT*eA*eA*eA*dA*dT*dA*dT*dA*dT*dT*dA*dA*dG*eG*e[5mC]*eA*eA*e[5mC]; antisense) [compound 531195]", "% inhibition": 61}, {"substance": "531196 (eT*eT*eG*eA*eG*dT*d[5mC]*dA*dG*dA*d[5mC]*dA*dT*d[5mC]*d[5mC]*eT*eG*eT*eG*eA; antisense) [compound 531196]", "% inhibition": 38}, {"substance": "531197 (eT*eA*e[5mC]*e[5mC]*eT*dT*dT*dT*d[5mC]*dT*d[5mC]*d[5mC]*dA*dT*dG*eT*e[5mC]*eA*eT*eT; antisense) [compound 531197]", "% inhibition": 42}, {"substance": "531199 (e[5mC]*eT*eT*eT*eG*dA*dA*dT*dA*dG*dA*dA*dA*dA*dT*eG*eA*e[5mC]*eT*eA; antisense) [compound 531199]", "% inhibition": 1}, {"substance": "531200 (e[5mC]*eA*eA*eA*eA*dT*d[5mC]*dA*d[5mC]*dA*dA*dG*dT*dT*d[5mC]*eT*eA*eG*eA*eT; antisense) [compound 531200]", "% inhibition": 51}, {"substance": "531201 (eT*eT*eT*e[5mC]*e[5mC]*dA*dA*dT*dA*d[5mC]*dT*dT*dT*dT*dA*e[5mC]*eA*eA*eA*eT; antisense) [compound 531201]", "% inhibition": 52}, {"substance": "531202 (eA*eT*eT*eA*eA*dT*dA*dA*dG*d[5mC]*dA*dT*d[5mC]*dT*d[5mC]*eT*e[5mC]*eT*eG*eA; antisense) [compound 531202]", "% inhibition": 31}, {"substance": "531203 (eT*eG*eA*e[5mC]*eT*dA*dT*d[5mC]*d[5mC]*dA*dA*dT*dT*dT*d[5mC]*eT*eA*eG*eT*eT; antisense) [compound 531203]", "% inhibition": 67}, {"substance": "531204 (e[5mC]*eT*eT*eG*eT*dA*dG*dT*d[5mC]*dT*dG*d[5mC]*dA*d[5mC]*dT*eT*eA*eA*eT*eG; antisense) [compound 531204]", "% inhibition": 60}, {"substance": "531205 (eA*e[5mC]*eA*eT*eT*dT*dT*dT*dT*dA*dA*dG*dT*dA*d[5mC]*eA*eG*eG*eA*eA; antisense) [compound 531205]", "% inhibition": 0}, {"substance": "531206 (eG*eA*eA*eA*eT*dG*dT*d[5mC]*dT*dA*dG*d[5mC]*dA*dT*dT*eT*eT*e[5mC]*eT*eA; antisense) [compound 531206]", "% inhibition": 28}, {"substance": "531207 (e[5mC]*e[5mC]*eA*e[5mC]*eT*dT*dA*dT*dT*dT*dG*dA*dT*dG*dA*e[5mC]*e[5mC]*eA*e[5mC]*eA; antisense) [compound 531207]", "% inhibition": 64}, {"substance": "531208 (eT*e[5mC]*e[5mC]*eA*eG*dA*dA*dT*dA*d[5mC]*dT*dG*d[5mC]*d[5mC]*d[5mC]*e[5mC]*eA*eT*e[5mC]*eT; antisense) [compound 531208]", "% inhibition": 23}, {"substance": "531209 (eT*eG*eG*eA*eT*dT*d[5mC]*dA*dT*dT*dT*dT*d[5mC]*dT*dG*e[5mC]*eA*eA*eA*eT; antisense) [compound 531209]", "% inhibition": 81}, {"substance": "531210 (eA*eG*eA*e[5mC]*eA*dT*dT*dG*dT*d[5mC]*dA*dA*dA*dT*dG*eT*e[5mC]*e[5mC]*e[5mC]*e[5mC]; antisense) [compound 531210]", "% inhibition": 60}, {"substance": "531211 (eT*eT*eG*eA*eT*dG*dT*d[5mC]*dA*dG*d[5mC]*dA*d[5mC]*dT*dG*eT*eT*eG*eA*e[5mC]; antisense) [compound 531211]", "% inhibition": 77}, {"substance": "531212 (eA*e[5mC]*eA*eT*e[5mC]*dA*dG*dT*dA*dG*d[5mC]*dT*dT*d[5mC]*dA*eG*eA*eT*eG*eT; antisense) [compound 531212]", "% inhibition": 56}, {"substance": "531213 (e[5mC]*eA*eA*eA*eA*dT*dT*dA*dA*dT*dT*dG*dT*dG*d[5mC]*eA*eT*eA*eA*eT; antisense) [compound 531213]", "% inhibition": 13}, {"substance": "531214 (eT*eT*eT*eT*eT*d[5mC]*dT*dT*dT*dA*dA*dA*dT*dT*dT*eT*eG*e[5mC]*eT*eA; antisense) [compound 531214]", "% inhibition": 37}, {"substance": "531215 (eT*eA*eG*eA*eG*dA*dT*dT*dT*dT*dA*dT*dG*dT*dA*e[5mC]*eT*eT*eG*eG; antisense) [compound 531215]", "% inhibition": 63}, {"substance": "531216 (eA*eA*eA*e[5mC]*eA*d[5mC]*dA*dG*dG*dA*dA*dT*dT*dT*dG*e[5mC]*eA*eG*eA*e[5mC]; antisense) [compound 531216]", "% inhibition": 33}, {"substance": "531217 (eG*eT*eG*eG*eA*dA*dT*dA*dA*dA*d[5mC]*d[5mC]*dA*dT*dA*eA*eT*e[5mC]*eT*eA; antisense) [compound 531217]", "% inhibition": 47}, {"substance": "531218 (eG*eA*eT*eA*eA*dT*dT*d[5mC]*dT*dT*dT*dT*d[5mC]*dA*d[5mC]*eA*eG*eA*e[5mC]*eA; antisense) [compound 531218]", "% inhibition": 72}, {"substance": "531219 (e[5mC]*eT*eT*e[5mC]*eT*d[5mC]*dT*dA*dT*d[5mC]*dT*d[5mC]*d[5mC]*d[5mC]*dA*eG*eT*eG*eT*eT; antisense) [compound 531219]", "% inhibition": 61}, {"substance": "531220 (e[5mC]*eA*eA*eT*eA*d[5mC]*dA*dG*dG*dT*dA*dA*dA*dT*dT*eT*e[5mC]*eA*e[5mC]*eG; antisense) [compound 531220]", "% inhibition": 56}, {"substance": "531221 (eA*eA*eG*eG*eG*dA*dT*dT*dT*dA*dA*dA*dA*dT*dT*eT*eT*eT*eA*eT; antisense) [compound 531221]", "% inhibition": 0}, {"substance": "531222 (eG*eG*e[5mC]*eA*eA*dG*d[5mC]*dT*dG*dT*dA*d[5mC]*dA*dA*dG*eA*eA*eA*eA*eA; antisense) [compound 531222]", "% inhibition": 19}, {"substance": "531223 (eT*eG*eT*eA*e[5mC]*dT*d[5mC]*dA*d[5mC]*d[5mC]*dG*dG*dT*dA*d[5mC]*eT*e[5mC]*eT*eG*e[5mC]; antisense) [compound 531223]", "% inhibition": 58}, {"substance": "531224 (eA*eA*eG*eA*eG*dA*dA*dT*dG*d[5mC]*dT*d[5mC]*dA*dG*dA*eA*eA*eT*eG*eG; antisense) [compound 531224]", "% inhibition": 25}]}]}
